{
  "source": "ChEMBL document CHEMBL1201862",
  "about": "“PubChem BioAssay data set” (2004)",
  "assay_in_all_cases": "DTP human tumour cell line panel, 48 h",
  "key": {"786-0": {"system": "786-0"}, "A498": {"system": "A498"}, "A549": {"system": "A549"}, "ACHN": {"system": "ACHN"}, "CCRF-CEM": {"system": "CCRF-CEM"}, "COLO 205": {"system": "COLO 205"}, "DLD-1": {"system": "DLD-1"}, "DMS-114": {"system": "DMS-114"}, "DMS-273": {"system": "DMS-273"}, "EKVX": {"system": "EKVX"}, "HCC 2998": {"system": "HCC 2998"}, "HCT-116": {"system": "HCT-116"}, "HCT-15": {"system": "HCT-15"}, "HOP-18": {"system": "HOP-18"}, "HOP-62": {"system": "HOP-62"}, "HT-29": {"system": "HT-29"}, "IGROV-1": {"system": "IGROV-1"}, "K562": {"system": "K562"}, "KM-20L2": {"system": "KM-20L2"}, "KM12": {"system": "KM12"}, "LOX IMVI": {"system": "LOX IMVI"}, "LXFL 529": {"system": "LXFL 529"}, "M14": {"system": "M14"}, "M19-MEL": {"system": "M19-MEL"}, "Malme-3M": {"system": "Malme-3M"}, "NCI-H226": {"system": "NCI-H226"}, "NCI-H23": {"system": "NCI-H23"}, "NCI-H460": {"system": "NCI-H460"}, "NCI-H522": {"system": "NCI-H522"}, "OVCAR-3": {"system": "OVCAR-3"}, "OVCAR-4": {"system": "OVCAR-4"}, "OVCAR-5": {"system": "OVCAR-5"}, "OVCAR-8": {"system": "OVCAR-8"}, "RXF 393": {"system": "RXF 393"}, "RXF 631": {"system": "RXF 631"}, "SF-268": {"system": "SF-268"}, "SF-295": {"system": "SF-295"}, "SF-539": {"system": "SF-539"}, "SK-MEL-28": {"system": "SK-MEL-28"}, "SK-MEL-2": {"system": "SK-MEL-2"}, "SK-MEL-5": {"system": "SK-MEL-5"}, "SK-OV-3": {"system": "SK-OV-3"}, "SN12C": {"system": "SN12C"}, "SNB-19": {"system": "SNB-19"}, "SNB-75": {"system": "SNB-75"}, "SNB-78": {"system": "SNB-78"}, "SW-620": {"system": "SW-620"}, "TK-10": {"system": "TK-10"}, "U-251": {"system": "U-251"}, "UACC-257": {"system": "UACC-257"}, "UACC-62": {"system": "UACC-62"}, "UO-31": {"system": "UO-31"}},
  "note": "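48-hour exposure; five concentrations; linearly interpolated endpoints. Abbreviation: GI50, concentration required for 50% inhibition of growth.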 Activity calls are given as the source filed them. Cut-off read from the data, not from the text of the source: active = GI50 up to about 1.1 µM and inactive = higher.",
  "data": [
    {"compound": "CC(=O)OCCOCNC(=S)N/N=C(\\C)c1ccco1", "values": [
      {"measurement": "GI50", "setting": "786-0", "value": "> 100 µM (inactive)"},
      {"measurement": "GI50", "setting": "A498", "value": "> 100 µM (inactive)"},
      {"measurement": "GI50", "setting": "A549", "value": "> 100 µM (inactive)"},
      {"measurement": "GI50", "setting": "ACHN", "value": "> 100 µM (inactive)"},
      {"measurement": "GI50", "setting": "CCRF-CEM", "value": "> 100 µM (inactive)"},
      {"measurement": "GI50", "setting": "COLO 205", "value": "> 100 µM (inactive)"},
      {"measurement": "GI50", "setting": "DLD-1", "value": "> 100 µM (inactive)"},
      {"measurement": "GI50", "setting": "DMS-114", "value": "> 100 µM (inactive)"},
      {"measurement": "GI50", "setting": "DMS-273", "value": "> 100 µM (inactive)"},
      {"measurement": "GI50", "setting": "EKVX", "value": "> 100 µM (inactive)"},
      {"measurement": "GI50", "setting": "HCC 2998", "value": "> 100 µM (inactive)"},
      {"measurement": "GI50", "setting": "HCT-116", "value": "> 100 µM (inactive)"},
      {"measurement": "GI50", "setting": "HCT-15", "value": "> 100", "unit": "µM"},
      {"measurement": "GI50", "setting": "HOP-18", "value": "> 100 µM (inactive)"},
      {"measurement": "GI50", "setting": "HOP-62", "value": "> 100 µM (inactive)"},
      {"measurement": "GI50", "setting": "HT-29", "value": "> 100 µM (inactive)"},
      {"measurement": "GI50", "setting": "IGROV-1", "value": "> 100 µM (inactive)"},
      {"measurement": "GI50", "setting": "K562", "value": "> 100 µM (inactive)"},
      {"measurement": "GI50", "setting": "KM-20L2", "value": "> 100 µM (inactive)"},
      {"measurement": "GI50", "setting": "KM12", "value": "> 100 µM (inactive)"},
      {"measurement": "GI50", "setting": "LOX IMVI", "value": "> 100 µM (inactive)"},
      {"measurement": "GI50", "setting": "LXFL 529", "value": "> 100 µM (inactive)"},
      {"measurement": "GI50", "setting": "M14", "value": "> 100 µM (inactive)"},
      {"measurement": "GI50", "setting": "M19-MEL", "value": "> 100 µM (inactive)"},
      {"measurement": "GI50", "setting": "Malme-3M", "value": "> 100 µM (inactive)"},
      {"measurement": "GI50", "setting": "NCI-H226", "value": "64.6 µM (inactive)"},
      {"measurement": "GI50", "setting": "NCI-H23", "value": "> 100 µM (inactive)"},
      {"measurement": "GI50", "setting": "NCI-H460", "value": "> 100 µM (inactive)"},
      {"measurement": "GI50", "setting": "NCI-H522", "value": "> 100 µM (inactive)"},
      {"measurement": "GI50", "setting": "OVCAR-3", "value": "> 100 µM (inactive)"},
      {"measurement": "GI50", "setting": "OVCAR-4", "value": "> 100 µM (inactive)"},
      {"measurement": "GI50", "setting": "OVCAR-5", "value": "> 100 µM (inactive)"},
      {"measurement": "GI50", "setting": "OVCAR-8", "value": "> 100 µM (inactive)"},
      {"measurement": "GI50", "setting": "RXF 393", "value": "> 100 µM (inactive)"},
      {"measurement": "GI50", "setting": "RXF 631", "value": "> 100 µM (inactive)"},
      {"measurement": "GI50", "setting": "SF-268", "value": "> 100 µM (inactive)"},
      {"measurement": "GI50", "setting": "SF-295", "value": "> 100 µM (inactive)"},
      {"measurement": "GI50", "setting": "SF-539", "value": "> 100 µM (inactive)"},
      {"measurement": "GI50", "setting": "SK-MEL-28", "value": "> 100 µM (inactive)"},
      {"measurement": "GI50", "setting": "SK-MEL-2", "value": "> 100 µM (inactive)"},
      {"measurement": "GI50", "setting": "SK-MEL-5", "value": "> 100 µM (inactive)"},
      {"measurement": "GI50", "setting": "SK-OV-3", "value": "> 100 µM (inactive)"},
      {"measurement": "GI50", "setting": "SN12C", "value": "> 100 µM (inactive)"},
      {"measurement": "GI50", "setting": "SNB-19", "value": "> 100 µM (inactive)"},
      {"measurement": "GI50", "setting": "SNB-75", "value": "61 µM (inactive)"},
      {"measurement": "GI50", "setting": "SNB-78", "value": "> 100 µM (inactive)"},
      {"measurement": "GI50", "setting": "SW-620", "value": "> 100 µM (inactive)"},
      {"measurement": "GI50", "setting": "TK-10", "value": "> 100 µM (inactive)"},
      {"measurement": "GI50", "setting": "U-251", "value": "> 100 µM (inactive)"},
      {"measurement": "GI50", "setting": "UACC-257", "value": "> 100 µM (inactive)"},
      {"measurement": "GI50", "setting": "UACC-62", "value": "> 100 µM (inactive)"},
      {"measurement": "GI50", "setting": "UO-31", "value": "> 100 µM (inactive)"}
    ]}
  ]
}
